106 compounds from PubChem BioAssay AID1996 can be followed below.

≈ marks a conversion by molar mass, not a printed value. A value given as a limit tells only on which side of the number the result lay.

For the data set the following is noted: buffer; pH 7.4; 200.0 µM.
The solubility (kinetic) is the concentration staying in solution when a stock, usually in DMSO, is diluted into the medium. `Cc1cccc(NC(=O)c2ccccc2C(=O)Nc2cccc(C)c2)c1`: the solubility (kinetic) worked out at 3 µg/mL (≈ 8.71 µM).
For `O=[N+]([O-])c1cccc(-c2nnc(SCc3cccnc3)o2)c1` the value was > 47.1 µg/mL; for `Nc1cc(N)nc(SCc2ccc(Cl)cc2)n1`, > 40 µg/mL.
For `CCOc1ccc(C(=O)CCC(=O)N2CCN(c3ccccc3O)CC2)cc1` the value was 2.2 µg/mL (≈ 5.75 µM); for `O=[N+]([O-])c1ccc(OCCO)nc1`, 26.7 µg/mL (≈ 145 µM).
For the compound `Cc1c(C(=O)NC2CCCCC2)oc2ccc(F)cc12`, the kinetic solubility was 2.8 µg/mL (≈ 10.2 µM).
For `CCc1ccc(/C=C2/C(=O)NC(=O)N2C(C)=O)cc1` the value was 18.6 µg/mL (≈ 72 µM); for `CC(C)(C)NC(=O)/C(=C\c1ccco1)NC(=O)c1ccco1`, > 45.3 µg/mL; for `O=C(COc1ccccc1[N+](=O)[O-])NCCC1=CCCCC1`, 31.8 µg/mL (≈ 104 µM).
For `O=C1Cc2ccccc2C(c2ccc(Cl)cc2Cl)N1` (stereo unspecified) the value was 3.1 µg/mL (≈ 10.6 µM); for `Cc1cc(C)c(OCCCn2ccnc2)c(C)c1`, 27.2 µg/mL (≈ 111 µM).
For `CN(C)/C=C/C(=O)c1ccn(S(=O)(=O)c2ccccc2)c1` the value was > 45.7 µg/mL.
Take `Cc1ccc(CCC(=O)Nc2ccc(Cl)cc2)o1`: the kinetic solubility was determined as 23.9 µg/mL (≈ 90.6 µM).
The result for `COc1ccc(CNC2CCN(Cc3ccccc3)CC2)cc1` reads > 46.6 µg/mL; that for `COc1cccc(NC(=S)N(CCN(C)C)Cc2cccs2)c1`, 41.6 µg/mL (≈ 119 µM).
For `Cc1nc([N+](=O)[O-])cn1CC(=O)c1ccccc1` the value was 31.5 µg/mL (≈ 128 µM); for `Cc1ccc(S(=O)(=O)N(C)CC(=O)OCC(=O)c2ccc3c(c2)NC(=O)CO3)cc1`, 25 µg/mL (≈ 57.8 µM); for `CC(Cc1ccccc1)NC(=O)c1cc2ccccc2o1` (stereo unspecified), 30.5 µg/mL (≈ 109 µM).
For `Cc1ccc(N2C(=O)CC(Cc3cc(C)cc(C)c3)C2=O)cc1` (stereo unspecified), the solubility (kinetic) was determined as 8.8 µg/mL (≈ 28.6 µM). This solubility kinetic is about 3.5-fold lower than that of the compound before.
For `COc1cc2c(cc1OC)CN(CC(=O)Nc1ccc(F)cc1F)CC2`, the kinetic solubility amounted to 44 µg/mL (≈ 121 µM).
The result for `Cc1ccccc1C(=O)N1c2ccccc2OCC1C(C)(C)C` (stereo unspecified) reads < 0.7 µg/mL; that for `N#Cc1c(C(F)(F)F)cc(=O)[nH]c1SCC(=O)O`, > 41.7 µg/mL.
Regarding `CC(C)(C)c1ccc(/C=C2\SC(=O)N=C2N)cc1`, the solubility (kinetic) is < 0.3 µg/mL.
The result for `CCOc1ccc(Cl)cc1CNCCCSc1ncccn1` reads 43 µg/mL (≈ 127 µM).
The result for `Cc1nc(N=C(N)N)nc2ccccc12` reads > 30.2 µg/mL; that for `CCCC(=O)Nc1sc(C)c(C)c1C#N`, 13.6 µg/mL (≈ 61.2 µM); that for `CCOc1ccc(S(=O)(=O)Nc2ccc(C(=O)NCC(c3ccc(OC)cc3)N3CCOCC3)cc2)cc1` (stereo unspecified), 37.9 µg/mL (≈ 70.2 µM).
The result for `CCCCc1c(C)nc2ccccc2c1SCCC(=O)O` reads > 45.5 µg/mL.
`Cc1ccc(N(C)S(=O)(=O)c2csc(C(N)=O)c2)cc1C` registered a kinetic solubility of 43.8 µg/mL (≈ 135 µM).
The result for `Cc1ccccc1CC(=O)NC1CCCc2ccccc21` (stereo unspecified) reads 2.7 µg/mL (≈ 9.66 µM).
The result for `COc1ccc(Nc2ccc([N+](=O)[O-])cn2)cc1` reads 3 µg/mL (≈ 12.2 µM).
The result for `Cc1nc2cc(NC(=O)N3CCCC3)ccc2n1C` reads 29.4 µg/mL (≈ 114 µM); that for `CCc1cc(C(=O)NCC(C)(C)N2CCOCC2)sc1C`, > 46.6 µg/mL.
Regarding `NCCCn1cnc2ccccc21`, the solubility (kinetic) was > 26.3 µg/mL.
The result for `O=C(Nc1nccs1)C1CC=CCC1` (stereo unspecified) reads 22.7 µg/mL (≈ 109 µM); that for `O=C(/C=C/c1ccc(Cl)cc1)NC1CCS(=O)(=O)C1` (stereo unspecified), > 45 µg/mL; that for `CCOc1cc(C=O)ccc1OCC(=O)N1CCCC1`, > 41.6 µg/mL.
The result for `Cc1cc(=O)[nH]c(SCC(=O)Nc2nonc2C)n1` reads > 42.2 µg/mL.
The result for `Cc1c(NC(=O)Nc2ccc(F)cc2F)c(=O)n(-c2ccccc2)n1C` reads > 53.8 µg/mL; that for `N/C(=N\OC(=O)c1ccc(Cl)cc1[N+](=O)[O-])c1cccnc1`, 12.5 µg/mL (≈ 39 µM).
On to `COc1ccc(C(=O)Cn2cc[n+](C)c2)cc1.[Br-]`, for which the kinetic solubility is > 46.7 µg/mL.
Take `COc1ccc2nc(SCC(=O)NCCc3ccccc3)[nH]c2c1`: the kinetic solubility is > 51.2 µg/mL.
The result for `O=C(NC(=O)N1CCCCCC1)c1ccccc1` reads > 36.9 µg/mL; that for `COc1ccc(OC)c(CNC(=O)c2coc(=O)c3ccccc23)c1`, > 50.9 µg/mL.
For `COC(=O)c1ccc2nc(-c3ccc4c(c3)OCO4)cn2c1` the value was 1.2 µg/mL (≈ 4.05 µM); for `O=C(O)c1cc(-c2cccc3ccccc23)nc2ccccc12`, > 44.9 µg/mL.
With `CCOC(=O)/C(C#N)=C\c1cccnc1`, the kinetic solubility is > 30.3 µg/mL.
Take `COC(=O)c1cc(CSC(=N)N)ccc1OCCC(C)C.Cl`: the solubility (kinetic) was > 52 µg/mL.
For `COc1cc2ccccc2cc1C(=O)NC(=S)Nc1cccc(C(=O)O)c1C` the value was 18.3 µg/mL (≈ 46.4 µM); for `CCc1noc(C)c1C(=O)Nc1nc2ccc(F)cc2s1`, 27.2 µg/mL (≈ 89.1 µM).
For `O=C(CN1C(=O)NC2(CCc3ccccc32)C1=O)c1ccc(Br)cc1` (stereo unspecified) the value was 4.4 µg/mL (≈ 11 µM); for `CCN(CC)C(=O)CSc1nc(-c2ccccc2)ccc1C#N`, 0.6 µg/mL (≈ 1.84 µM); for `O=C(O)c1ccc(Cl)c(S(=O)(=O)N2CCCC2)c1`, > 43.5 µg/mL.
Turning to `COc1ccc(NC(=O)C2(c3ccccc3)CCCC2)cc1`, the kinetic solubility came out at 2.6 µg/mL (≈ 8.8 µM).
The result for `O=C1[C@@H]2CSCN2C(=O)CN1Cc1ccccc1F` reads > 42 µg/mL; that for `O=C(Nc1ccccc1O)/C(=C\c1ccccc1)NC(=O)c1ccccc1`, 14.9 µg/mL (≈ 41.6 µM); that for `CCOC(=O)N1CCN(CCc2ccccc2)CC1`, 30.6 µg/mL (≈ 117 µM).
Consider `O=C(CN1CCN(S(=O)(=O)c2ccccc2F)CC1)N1CCc2ccccc2C1`, for which the kinetic solubility was found to be 12.8 µg/mL (≈ 30.7 µM).
The result for `CCn1c(/N=C/c2ccccc2O)nc2ccccc21` reads 36.9 µg/mL (≈ 139 µM); that for `C/C(=C\c1ccccc1)CN1CCN(C)CC1`, 18.1 µg/mL (≈ 78.6 µM); that for `CC(Oc1ccc(F)cc1)C(O)CCN(C)C` (stereo unspecified), 25.8 µg/mL (≈ 107 µM).
For `COCCCNC(=S)Nc1cccc(SC)c1` the value was > 40.6 µg/mL; for `O=c1[nH]cc(N(CCO)CCO)c(=O)[nH]1`, > 32.3 µg/mL.
The result for `COc1ccccc1N1CCN(Cc2ccc(O)c3ncccc23)CC1` reads 7.5 µg/mL (≈ 21.5 µM); that for `O=C(Cc1ccccc1)Nc1ccc(NC(=O)c2ccco2)cc1`, 4 µg/mL (≈ 12.5 µM); that for `O=C(Nc1cscc1S(=O)(=O)c1ccccc1)c1ccccc1Cl`, 10.3 µg/mL (≈ 27.3 µM).
In turn, `CN(C)C(=O)O/N=C(\N)COc1ccc(C(C)(C)C)cc1` registered a kinetic solubility of 36 µg/mL (≈ 123 µM).
The result for `O=C(O)c1ccc(NCCC2=CCCCC2)c([N+](=O)[O-])c1` reads 41.9 µg/mL (≈ 144 µM).
For `CCC1=NC(c2ccc(Br)cc2)N(O)C1(C)C` (stereo unspecified) the value was 41 µg/mL (≈ 138 µM); for `Cc1ccc(S(=O)(=O)CCSc2ccc(C(F)(F)F)cn2)cc1`, < 0.8 µg/mL.
For `N=c1oc2cc(O)ccc2cc1C(=O)Nc1ccc(Cl)cc1` the value was 1.1 µg/mL (≈ 3.5 µM); for `CC1CCCC(NC(=O)c2cccs2)C1C` (stereo unspecified), 23 µg/mL (≈ 96.9 µM).
In the case of `CN(C(=S)NC(=O)c1ccc(F)cc1)C1CCCCC1`, the kinetic solubility came out at 8.8 µg/mL (≈ 29.9 µM).
The result for `Cc1cc(O)ccc1NS(=O)(=O)c1ccc2c3c(cccc13)C(=O)N2` reads 48.8 µg/mL (≈ 138 µM); that for `N/C(=N\OC(=O)c1ccccc1Cl)c1cccc([N+](=O)[O-])c1`, 1.7 µg/mL (≈ 5.32 µM).
As for `CN1C(=O)c2cccc3c(S(=O)(=O)N4CCCC4C(=O)O)ccc1c23` (stereo unspecified), the kinetic solubility is > 54.1 µg/mL.
`COc1ccc(N2CCN(CC(=O)c3c[nH]c4ccccc34)CC2)cc1` registered a kinetic solubility of 1.9 µg/mL (≈ 5.44 µM).
The result for `Cc1cc(SCc2ccc(Cl)c(Cl)c2)nc(=O)[nH]1` reads 1.4 µg/mL (≈ 4.65 µM).
For `CC(=O)c1c(C(C)=O)c(C)n(-c2cccc3cccnc23)c1C` the value was > 46 µg/mL.
For `CNC(=O)c1ccc(NC(=O)CCc2c(C)noc2C)cc1`, the solubility (kinetic) is > 45.2 µg/mL.
On to `CCOc1ccc(C(=O)CC(C(=O)O)N2CCCCC2)cc1` (stereo unspecified), for which the kinetic solubility was > 45.8 µg/mL.
The result for `CCN(CC(=O)NCc1ccc(F)cc1)C(=O)/C=C/c1ccco1` reads > 49.6 µg/mL; that for `Cc1ccc(NC(=O)C2CCCO2)c(Br)c1` (stereo unspecified), 37.5 µg/mL (≈ 132 µM).
For `O=C1NC(=Nc2ccccc2Cl)SC1(CO)CO`, the solubility (kinetic) amounted to 42.3 µg/mL (≈ 148 µM).
For `O=C(NCC1CCCO1)c1cccc(NC(=O)c2cccs2)c1` (stereo unspecified) the value was > 49.6 µg/mL; for `COc1ccc(NC(C)=O)cc1C#N`, 24.5 µg/mL (≈ 129 µM).
The compound `CCc1ccc(S(=O)(=O)NCC(O)COc2ccc(OC)cc2)cc1` (stereo unspecified) yielded a solubility (kinetic) of 51.9 µg/mL (≈ 142 µM).
For `c1ccc(-n2ccnc2)cc1` the value was 19.7 µg/mL (≈ 137 µM); for `Cc1ncn2cc(-c3ccc(Cl)cc3Cl)[nH]c(=O)c12`, 2.8 µg/mL (≈ 9.52 µM).
For `N#Cc1ccc(Cn2c(=O)oc3ccccc32)cc1` the value was 6 µg/mL (≈ 24 µM).
The result for `Cc1ccc(OCC(=O)Nc2ccc(CN3CCOCC3)cc2)cc1` reads 27.8 µg/mL (≈ 81.7 µM).
In the case of `O=C1COCC(=O)N1CCc1c[nH]c2ccccc12`, the solubility (kinetic) is > 38.7 µg/mL.
For `CC1(C)CC(=O)C(C=Nc2ccc(N)cc2)=C(O)C1` the value was > 38.7 µg/mL; for `CCCCCCN1C=CC(=C2C(=O)c3ccccc3C2=O)C=C1`, < 0.7 µg/mL; for `O=C(NC(=S)Nc1ccc(O)cc1)c1ccccc1Cl`, 20.5 µg/mL (≈ 66.8 µM).
For `CSc1cccc(NC(=O)CNS(=O)(=O)c2ccccc2)c1` the value was > 50.5 µg/mL; for `CCc1ccccc1NC(=O)CC(NCc1ccccc1)C(=O)O` (stereo unspecified), > 49 µg/mL; for `CN1CCN(S(=O)(=O)c2ccccc2)C(c2ccccc2)C1` (stereo unspecified), 44.2 µg/mL (≈ 140 µM).
The result for `CCOc1ccc(N)cc1OC.Cl` reads > 30.6 µg/mL; that for `CC1(C)CC(=O)C=C(Nc2ccc(Cl)cc2)C1`, 34.2 µg/mL (≈ 137 µM); that for `CC(CNC(=O)c1ccc(C#N)cc1)NC(=O)c1ccc(C#N)cc1` (stereo unspecified), > 49.9 µg/mL.
Take `S=c1[nH]cnc2scc(-c3ccc(Cl)cc3)c12`: the kinetic solubility worked out at 0.5 µg/mL (≈ 1.79 µM).
For `COc1cccc(OC)c1C(=O)Nc1ccc(N2CCCC2)cc1` the value was 46.9 µg/mL (≈ 144 µM); for `Cc1ccccc1CSCC(=O)Nc1ccccc1F`, 27.9 µg/mL (≈ 96.4 µM); for `Cc1ccsc1C(=O)N[C@@H](C)c1nnc2ccccn12`, > 43 µg/mL.
For `O=C1CC(c2ccccc2)CN1` (stereo unspecified) the value was > 24.2 µg/mL.
